Data from ChEMBL document CHEMBL5033995, “Discovery and Early Clinical Development of LY3202626, a Low-Dose, CNS-Penetrant BACE Inhibitor” (J Med Chem, 2021).

What was measured:
[1] = Lipophilicity, log P of the compound; format: physicochemical; details: octanol/water
[2] = Dissociation constant, pKa of compound; format: physicochemical
[3] = Drug accumulation in human HepG2 cells lysosomes assessed as maximum fluorescence response after 24 hrs by Lysotracker Green DND-26 dye based assay; format: ADME, cell-based; details: hepg2, 24 h
[4] = Permeability in MDCK cells; format: ADME, cell-based, Canis lupus familiaris; details: dog, read-out: permeability
[5] = Stability in mouse liver microsomes at 2 uM measured upto 30 mins in presence of NADPH by LC-MS/MS analysis; format: ADME, Microsome; details: read-out: Stability
[6] = Stability in rat liver microsomes at 2 uM measured upto 30 mins in presence of NADPH by LC-MS/MS analysis; format: ADME, Microsome; details: read-out: Stability
[7] = Stability in dog liver microsomes at 2 uM measured upto 30 mins in presence of NADPH by LC-MS/MS analysis; format: ADME, Canis lupus familiaris, Microsome; details: read-out: Stability
[8] = Stability in human liver microsomes at 2 uM measured upto 30 mins in presence of NADPH by LC-MS/MS analysis; format: ADME, Microsome; details: read-out: Stability
[9] = Clearance in rat at 2 mg/kg, iv by LC-MS/MS analysis; format: ADME, organism-based; details: in vivo
[10] = Volume of distribution at steady state in rat at 2 mg/kg, iv by LC-MS/MS analysis; format: ADME, organism-based; details: in vivo, read-out: Vdss
[11] = Clearance in dog at 1 mg/kg, iv by LC-MS/MS analysis; format: ADME, organism-based, Canis lupus familiaris; details: in vivo
[12] = Volume of distribution at steady state in dog at 1 mg/kg, iv by LC-MS/MS analysis; format: ADME, organism-based, Canis lupus familiaris; details: in vivo, read-out: Vdss
[13] = Bioavailability in rat; format: ADME, organism-based; details: in vivo
[14] = Ratio of free drug concentration in CSF to plasma of dog; format: ADME, Canis lupus familiaris; details: CSF and plasma
[15] = Oral clearance in human; format: ADME
[16] = clinical; details: human, CSF and plasma

SMILES | logP [1] | pKa [2] | Rmax [3] | Papp [4] [×10⁻⁶ cm/s] | remaining at 0.5 h, 2 µM [5] [%] | remaining at 0.5 h, 2 µM [6] [%] | remaining at 0.5 h, 2 µM [7] [%] | remaining at 0.5 h, 2 µM [8] [%] | clearance [9] [mL/min/kg] | Vd [10] [L/kg] | clearance [11] [mL/min/kg] | Vd [12] [L/kg] | bioavailability [13] [%] | Kp uu [14] | CL/F [15] [mL/min/kg] | Kp uu [16]
Cl.N#Cc1ccc([C@]23CN(c4ncc(F)cn4)C[C@H]2CSC(N)=N3)s1 | 2.3 | 6.6 | 91 | – | – | – | – | – | – | – | – | – | – | – | – | –
NC1=N[C@@]2(c3cc(NC(=O)c4ncc(F)cc4F)ccc3F)CN(c3ncc(F)cn3)C[C@H]2CS1 | 2.8 | 7.7 | – | 30 | 22 | 7 | 7 | 13 | 15 | 2.2 | 2.7 | 0.52 | 55 | 0.2 | – | –
C[C@@H]1C[C@H]1CNC(=O)[C@@H]1C[C@H]1[C@]12CN(c3ncccn3)C[C@H]1CSC(N)=N2 | 2 | 8 | – | 8 | 33 | 55 | 28 | 13 | – | – | – | – | – | – | – | –
C[C@@]1(c2cc(-c3cncnc3)c(F)cc2F)CCSC(N)=N1 [LY-2811376] | 2.9 | 8.8 | 3364 | 60 | – | – | – | – | – | – | – | – | – | – | – | –
NC1=N[C@@]2(c3cc(NC(=O)c4ccc(F)cn4)ccc3F)CN(c3ncc(F)cn3)C[C@H]2CS1 (relative stereo) | 3.1 | 7.9 | – | 33 | 25 | 16 | 8 | 13 | 7.8 | 2.5 | 1.6 | 1.1 | 72 | 0.1 | – | –
NC1=N[C@@]2(c3cc(NC(=O)c4ccc(F)cn4)ccc3F)COC[C@H]2CS1 [LY-2886721] | 2.1 | 7.7 | 7863 | 55 | 33 | 19 | 0 | 11 | 94 | 10.4 | 4.9 | 2.3 | 30 | 0.9 | – | –
COc1cnc(C(=O)Nc2ccc(F)c([C@]34CN(c5ncc(F)cn5)C[C@H]3CSC(N)=N4)c2)cn1 | 3.2 | 7.6 | – | 19 | 27 | 7 | 50 | 12 | 20 | 5.2 | 5.2 | 0.78 | 47 | 0.9 | 26 | 1
C[C@@H]1C[C@H]1CNC(=O)[C@@H]1C[C@H]1[C@]12COC[C@H]1CSC(N)=N2 | 0.8 | 8 | – | 14 | 23 | 84 | 8 | 19 | – | – | – | – | – | – | – | –

The next lines start with the values.

logP [1] | pKa [2] | Rmax [3] | Papp [4] [×10⁻⁶ cm/s] | remaining at 0.5 h, 2 µM [5] [%] | remaining at 0.5 h, 2 µM [6] [%] | remaining at 0.5 h, 2 µM [7] [%] | remaining at 0.5 h, 2 µM [8] [%] | clearance [9] [mL/min/kg] | Vd [10] [L/kg] | clearance [11] [mL/min/kg] | Vd [12] [L/kg] | bioavailability [13] [%] | Kp uu [14] | CL/F [15] [mL/min/kg] | Kp uu [16] | SMILES
0.8 | 7.1 | 59 | 54 | – | – | – | – | – | – | – | – | – | – | – | – | Cl.NC1=N[C@@]2(c3cnccn3)CN(c3ncc(F)cn3)C[C@H]2CS1
1.9 | 7.6 | – | 59 | – | – | – | – | – | – | – | – | – | – | – | – | Cl.Cl.NC1=N[C@@]2(c3cccs3)CN(c3ncccn3)C[C@H]2CS1
1.3 | 6.4 | 20 | 59 | – | – | – | – | 53.2 | 2.87 | 6 | 2.1 | – | 1 | – | – | Cl.NC1=N[C@@]2(c3ccns3)CN(c3ncc(F)cn3)C[C@H]2CS1
– | – | – | 36 | 98 | 98 | 79 | 31 | – | – | – | – | – | – | – | – | C[C@@H]1C[C@H]1COC(C)(C)[C@@H]1C[C@H]1[C@]12CN(c3ncccn3)C[C@H]1CSC(N)=N2
2.4 | 7.5 | 4090 | 60 | – | – | – | – | – | – | – | – | – | – | – | – | Cl.NC1=N[C@@]2(c3cccs3)CN(c3ncc(F)cn3)C[C@H]2CS1
